ChEMBL document CHEMBL1201862, “PubChem BioAssay data set” (2004)
Activity calls are given as the source filed them.

Assays:
[1] = NIH-3T3 fibroblast cytotoxicity, dose response, cytotoxicity control, cell-based, fluorescence, Alamar Blue, secondary assay (AID 2327); format: functional;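 also: NIH-3T3 mouse fibroblasts cultured with fluconazole at 8 µg/mL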
[2] = C. albicans growth with fluconazole, confirmation, fluorescence, retest (AID 2467); format: functional, cell-based
[3] = molecular target: T1, Rac GTPase-activating protein 1 (Homo sapiens, UniProt Q9H0H5); experiment: MgcRacGAP GTPase-activating activity inhibitors, confirmation, biochemical, ADP Hunter fluorescence, primary and confirmatory (AID 624330); format: functional
T1 sequence (Q9H0H5 whole entry): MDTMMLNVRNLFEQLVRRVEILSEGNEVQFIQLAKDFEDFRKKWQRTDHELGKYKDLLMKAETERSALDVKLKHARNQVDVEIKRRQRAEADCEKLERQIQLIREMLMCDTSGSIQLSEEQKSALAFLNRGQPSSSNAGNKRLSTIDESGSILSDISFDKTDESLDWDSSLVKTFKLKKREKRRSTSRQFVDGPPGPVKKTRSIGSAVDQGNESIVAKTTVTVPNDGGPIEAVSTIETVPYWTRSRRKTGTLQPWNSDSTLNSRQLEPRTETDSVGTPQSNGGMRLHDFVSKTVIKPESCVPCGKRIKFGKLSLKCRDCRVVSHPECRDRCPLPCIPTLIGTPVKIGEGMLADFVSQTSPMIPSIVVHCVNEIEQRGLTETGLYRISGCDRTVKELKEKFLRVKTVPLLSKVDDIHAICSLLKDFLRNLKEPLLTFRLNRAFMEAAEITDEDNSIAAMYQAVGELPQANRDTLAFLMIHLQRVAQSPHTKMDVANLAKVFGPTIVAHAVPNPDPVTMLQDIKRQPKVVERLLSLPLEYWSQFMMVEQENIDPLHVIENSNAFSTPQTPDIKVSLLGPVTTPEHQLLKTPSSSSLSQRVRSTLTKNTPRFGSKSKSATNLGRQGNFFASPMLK

Nonstructural protein 1 = Nonstructural protein 1 (Influenza A virus, UniProt Q194T2); format: functional, Influenza A virus (A/California/07/2009(H1N1))
[4] = molecular target: T2, RNA-binding protein pos-1 (Caenorhabditis elegans, UniProt G5EF15); experiment: inhibitors of POS-1/mex-3 RNA binding, dose response, biochemical, fluorescence polarization (AID 1964);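 also: purified POS-1 fused to maltose binding protein made in E. coli; potency of compounds blocking POS-1 binding to fluorescent RNA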
T2 sequence (G5EF15 whole entry): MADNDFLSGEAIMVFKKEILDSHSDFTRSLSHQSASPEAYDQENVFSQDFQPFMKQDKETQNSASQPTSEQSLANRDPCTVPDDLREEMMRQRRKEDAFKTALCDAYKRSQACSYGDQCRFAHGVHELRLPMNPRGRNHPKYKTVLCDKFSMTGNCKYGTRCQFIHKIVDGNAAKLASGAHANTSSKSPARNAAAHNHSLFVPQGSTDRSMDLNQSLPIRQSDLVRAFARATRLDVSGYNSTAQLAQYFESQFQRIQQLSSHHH

[5] = molecular target: T3, Zinc finger protein mex-5 (Caenorhabditis elegans, UniProt Q9XUB2); experiment: MEX-5/TCR-2 RNA interaction inhibitors, dose response, biochemical, C. elegans, fluorescence polarization (AID 1960)
T3 sequence (Q9XUB2 whole entry): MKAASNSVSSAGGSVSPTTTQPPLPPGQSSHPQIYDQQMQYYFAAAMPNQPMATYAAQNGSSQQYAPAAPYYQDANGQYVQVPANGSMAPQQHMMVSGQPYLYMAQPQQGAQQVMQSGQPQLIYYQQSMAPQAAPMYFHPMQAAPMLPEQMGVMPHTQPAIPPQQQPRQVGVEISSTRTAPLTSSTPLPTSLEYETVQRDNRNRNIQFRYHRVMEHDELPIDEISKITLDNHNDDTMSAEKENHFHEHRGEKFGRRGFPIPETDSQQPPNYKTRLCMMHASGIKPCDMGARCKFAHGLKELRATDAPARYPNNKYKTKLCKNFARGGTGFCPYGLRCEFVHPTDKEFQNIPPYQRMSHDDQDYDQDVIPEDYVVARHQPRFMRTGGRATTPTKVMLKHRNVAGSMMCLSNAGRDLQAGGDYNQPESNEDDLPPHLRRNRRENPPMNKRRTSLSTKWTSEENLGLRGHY

Protein RecA = molecular target: T4, Protein RecA (Mycobacterium tuberculosis, UniProt P9WHJ3); experiment: Fluorescence Cell-Free Homogeneous Dose Retest to Identify Inhibitors of RecA-Intein Splicing Activity. [Related pubchem assays (depositor defined):AID2097, AID2223, AID489010, AID492950]; format: functional
T4 sequence (P9WHJ3 whole entry): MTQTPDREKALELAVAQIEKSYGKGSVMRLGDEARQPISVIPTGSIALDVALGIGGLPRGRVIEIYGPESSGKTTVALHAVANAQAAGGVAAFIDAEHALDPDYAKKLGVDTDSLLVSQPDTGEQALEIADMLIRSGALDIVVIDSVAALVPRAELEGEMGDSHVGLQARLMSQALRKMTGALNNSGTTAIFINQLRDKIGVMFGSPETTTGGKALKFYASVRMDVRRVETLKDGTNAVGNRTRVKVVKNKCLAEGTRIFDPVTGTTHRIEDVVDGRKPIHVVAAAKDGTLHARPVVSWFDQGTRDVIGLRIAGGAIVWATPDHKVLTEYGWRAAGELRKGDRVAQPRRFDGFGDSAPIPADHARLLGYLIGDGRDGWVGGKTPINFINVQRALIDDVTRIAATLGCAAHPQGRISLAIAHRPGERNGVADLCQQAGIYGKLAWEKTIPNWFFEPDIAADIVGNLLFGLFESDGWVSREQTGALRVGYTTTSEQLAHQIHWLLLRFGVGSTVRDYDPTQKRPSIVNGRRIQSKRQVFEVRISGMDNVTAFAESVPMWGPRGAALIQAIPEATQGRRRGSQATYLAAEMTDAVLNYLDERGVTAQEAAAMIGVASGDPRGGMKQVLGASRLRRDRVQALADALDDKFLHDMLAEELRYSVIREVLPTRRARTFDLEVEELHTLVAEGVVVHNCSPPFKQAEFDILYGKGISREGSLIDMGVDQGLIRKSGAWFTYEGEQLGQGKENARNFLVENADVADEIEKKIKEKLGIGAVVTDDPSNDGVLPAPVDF

[6] = molecular target: T5, Replicative DNA helicase DnaB (Mycobacterium tuberculosis, UniProt P9WMR3); experiment: DnaB intein splicing inhibitors, dose response, biochemical, cell-free fluorescence (AID 449749); format: functional
T5 sequence (P9WMR3 whole entry): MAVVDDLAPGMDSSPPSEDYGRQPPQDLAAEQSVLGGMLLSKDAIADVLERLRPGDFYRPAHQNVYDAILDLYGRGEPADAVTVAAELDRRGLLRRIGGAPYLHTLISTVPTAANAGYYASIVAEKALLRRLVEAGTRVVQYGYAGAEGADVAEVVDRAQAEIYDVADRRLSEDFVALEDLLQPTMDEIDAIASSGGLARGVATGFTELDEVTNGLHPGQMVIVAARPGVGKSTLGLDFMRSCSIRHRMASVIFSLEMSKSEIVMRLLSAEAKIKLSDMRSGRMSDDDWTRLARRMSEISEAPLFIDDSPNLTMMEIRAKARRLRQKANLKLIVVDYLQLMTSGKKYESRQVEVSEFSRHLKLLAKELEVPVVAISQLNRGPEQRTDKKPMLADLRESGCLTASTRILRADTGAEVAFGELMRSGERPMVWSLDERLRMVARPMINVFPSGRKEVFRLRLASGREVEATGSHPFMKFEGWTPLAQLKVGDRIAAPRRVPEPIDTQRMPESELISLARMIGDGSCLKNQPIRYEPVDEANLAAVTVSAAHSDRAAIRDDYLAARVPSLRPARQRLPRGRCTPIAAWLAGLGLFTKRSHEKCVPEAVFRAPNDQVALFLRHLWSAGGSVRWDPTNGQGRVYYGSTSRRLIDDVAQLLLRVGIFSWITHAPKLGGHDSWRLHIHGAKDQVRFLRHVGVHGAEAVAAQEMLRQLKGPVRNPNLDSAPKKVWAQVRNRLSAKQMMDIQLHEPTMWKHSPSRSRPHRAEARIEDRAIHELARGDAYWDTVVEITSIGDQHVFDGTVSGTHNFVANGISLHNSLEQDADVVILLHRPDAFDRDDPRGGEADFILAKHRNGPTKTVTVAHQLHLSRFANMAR

[7] = molecular target: T6, Heat shock factor protein 1 (Mus musculus, UniProt P38532); experiment: HSF1 potentiators in luciferase reporter cells, confirmation, cell-based, NIH3T3, luminescence, dose retest (AID 435004); format: functional;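 also: stress induced by proteasome inhibitor MG132 added 30 min after compound; luciferase reporter driven by HSF1 response element in NIH3T3 cells; actives raise luminescence as potentiators of the MG132 stress response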
T6 sequence (P38532 whole entry): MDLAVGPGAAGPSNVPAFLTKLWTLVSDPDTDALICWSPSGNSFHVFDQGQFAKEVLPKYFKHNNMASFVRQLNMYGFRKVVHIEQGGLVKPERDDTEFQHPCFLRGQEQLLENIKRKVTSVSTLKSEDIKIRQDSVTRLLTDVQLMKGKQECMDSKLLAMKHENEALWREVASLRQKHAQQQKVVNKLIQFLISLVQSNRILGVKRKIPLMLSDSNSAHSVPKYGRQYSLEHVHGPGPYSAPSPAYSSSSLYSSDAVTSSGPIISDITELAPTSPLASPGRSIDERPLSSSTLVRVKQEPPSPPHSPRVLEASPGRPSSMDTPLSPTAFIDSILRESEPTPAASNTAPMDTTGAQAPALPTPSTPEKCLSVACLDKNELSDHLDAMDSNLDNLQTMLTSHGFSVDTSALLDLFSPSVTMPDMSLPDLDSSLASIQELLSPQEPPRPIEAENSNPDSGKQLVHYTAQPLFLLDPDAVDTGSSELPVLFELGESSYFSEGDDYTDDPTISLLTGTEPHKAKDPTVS

[8] = inhibitors of clade B AD8 Env fusion, dose response, cell-based, cherry-pick (AID 652062); format: functional;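 also: luciferase signal from cell-cell fusion driven by HIV-1 clade B AD8 Env; potency is for inhibitors of fusion seen as a drop in luminescence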
INS1 = experiment: beta cell apoptosis inhibitors, cytokine rescue, dose response, luminescence, retest (AID 449756); format: functional, cell-based; conditions: Rattus norvegicus;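 also: cell death triggered by IL-1 beta plus TNF-alpha plus IFN-gamma mixture; protective hits raise ATP signal compared with cytokine alone wells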

Sequence of Nonstructural protein 1 (Q194T2 whole entry, the tested form may be a part): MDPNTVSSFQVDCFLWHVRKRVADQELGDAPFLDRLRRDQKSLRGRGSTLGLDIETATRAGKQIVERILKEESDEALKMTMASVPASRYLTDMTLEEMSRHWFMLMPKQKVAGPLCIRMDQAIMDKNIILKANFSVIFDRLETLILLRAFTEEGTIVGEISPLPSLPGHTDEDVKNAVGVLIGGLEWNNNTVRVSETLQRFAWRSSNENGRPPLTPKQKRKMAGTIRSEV

Cc1nn(-c2ccccc2)c(C)c1C(=O)Nc1nnc(-c2ccco2)o1
EC50 [1]: > 150 µM (inactive)
EC50 [2]: 1.03 µM (active)

O=C(c1cccc(F)c1)N1CCN(Cc2cccc(Br)c2)CC1
IC50 [3]: 136 µM (active)

COc1ccc(OCCOCCN2CCN(C)CC2)cc1
IC50 [3]: 70.2 µM (active)

Cc1cccc(-n2cnc(C(=O)NN=C(S)Nc3ccc(Cl)cc3)c2)n1
IC50 (Nonstructural protein 1): 8.22 µM (active)

COc1ccc(NC2CCCN(C(=O)COc3ccc(Cl)cc3C)C2)cc1OC (configuration not stated)
IC50 [3]: 110 µM (active)

COc1cc(C2CC(=O)Oc3c(C(CCN4CCCC(C)C4)c4ccc(N(C)C)cc4)c(OC)cc(OC)c32)cc(OC)c1OC (configuration not stated)
IC50 (Nonstructural protein 1): 28.5 µM (active)

COc1ccc(C(=O)On2c(-c3ccc(Br)cc3)nc3ccccc3c2=O)cc1
EC50 [1]: 6.36 µM (inconclusive)
EC50 [2]: 1.8 µM (active)

CC(C)(C)c1ccc(SCC(N)=O)cc1
EC50 [1]: > 150 µM (inconclusive)
EC50 [2]: > 38 µM (not active)

O=[N+]([O-])c1cc(Br)c2nsnc2c1N1CCOCC1
IC50 (Nonstructural protein 1): 27.5 µM (active)

COc1ccc(N2CCN(CC(=O)N3c4ccccc4CC3C)CC2)cc1 (configuration not stated)
IC50 [3]: 79.7 µM (active)

Cc1cc(Cl)ccc1NNC(=O)c1c(C)noc1C
EC50 [1]: 32.7 µM (active)
EC50 [2]: > 38 µM (not active)

CN1CCc2c(sc3c2C(=O)NC(c2ccccn2)N3)C1 (configuration not stated)
EC50 [4]: 15.1 µM (active)
IC50 (Nonstructural protein 1): 13.7 µM (active)
EC50 [5]: 14.3 µM (active)

COc1cc(OC)cc(-c2nnc(Sc3ccc(C=O)cc3[N+](=O)[O-])o2)c1
EC50 (Protein RecA): 2.04 µM (active)
AC50 [6]: 6.58 µM (active)
EC50 [7]: > 260 µM (inactive)

O=C(COC(=O)c1cccc(S(=O)(=O)N2CCOCC2)c1)NCc1ccccc1
AC50 [8]: 59.6 µM (active)

COc1ccc(S(=O)(=O)NC[C@@H]2CC[C@H]3[C@H](CN3Cc3cc(F)ccc3F)O2)cc1
AC50 [8]: 1.21 µM (active)

O=C(C[C@@H]1C[C@H]2c3cc(NC(=O)C4CCC4)ccc3O[C@H]2[C@H](CO)O1)NCC(F)(F)F
AC50 [8]: 1.7 µM (active)

NC(=S)N/N=C/c1ccccc1O
IC50 (Nonstructural protein 1): 14.1 µM (active)
AC50 (INS1): 0.945 µM (active)

CSc1nc(Cl)c(C#N)c(-c2ccc(C)cc2)n1
EC50 [1]: > 150 µM (inconclusive)
EC50 [2]: 1.55 µM (active)

O=[N+]([O-])c1cc(/C=N/Nc2nc(N3CCCCC3)nc(N3CCCCC3)n2)ccc1O
IC50 (Nonstructural protein 1): > 100 µM (active)

O=C(Cc1cccs1)N/N=C\c1ccc(O)cc1
IC50 [3]: 39.3 µM (active)

CCOC(=O)CC(/C(C)=N\O)c1ccccc1 (configuration not stated)
EC50 [1]: > 160 µM (inactive)
EC50 [2]: > 38 µM (not active)
